Experimental data: publication PMC12638379, “An innovative approach to development of new pyrazolylquinolin-2-one hybrids as dual EGFR and BRAF^V600E inhibitors” (Molecular Diversity, 2025)
“Also recorded” adds a separate entry of the source.

What was measured:
HOP-92 cells [1] = assay: Annexin V-FITC/PI apoptosis assay; assay type: cell-based, human
Protocol: Using the Annexin V-FITC/PI test, the tendency of compound 4e to cause apoptosis and its potential association with cytotoxic action were evaluated. The cells were labeled with annexin V-FITC/PI and cultured for 24 h to detect any signs of apoptosis. […] According to research on early and late apoptosis and DNA content (Figs. 9, 10), 4e with 3.4% necrosis is probably going to result in a large amount of apoptosis (Table 5 and Fig. 10).
Cell apoptosis were analyzed by the Annexin V-FITC Apoptosis Detection Kit (BioVision Research Products, USA). Thereafter, 1-5 x 10^5 cells was collected by centrifugation and resuspend in 500 μl of 1X Binding Buffer. Added 5 μl of Annexin V-FITC and 5 μl of propidium iodide (PI […], optional.). The cells incubated at room temperature for 5 min in the dark;Analyzed by Annexin V-FITC binding flow cytometric method (Ex = 488 nm; Em = 530 nm) usingFITC signal detector (usually FL1) and PI staining by the phycoerythrin emissionsignal detector (usually FL2).For adherent cells, we gently trypsinized and washed cells once with serum-containing mediabefore incubation with Annexin V-FITC (A.3-5).

HOP-92 cells [2] = assay: Cell cycle analysis (propidium iodide flow cytometry); assay type: cell-based, human
Excerpt: Research has been done on how the most powerful antitumor compound, 4e, affects the HOP-92 cell cycle’s growth and apoptosis.
Researcher : Dr.Mohamed Hawas email: mohhawwas80@gmail.com mob. 01151345909 Assay : Cell Cycle Analysis mohamedhassan.pharm.ast@azhr.edu.eg Samples : 02 samplescell line : ---Ref. : ---Date : 00-00-2022Reader : BD FACSCaliburKit used : ab139418_Propidium Iodide Flow Cytometry Kit/BDSolvent : DMSOAssay samples : Cell culture

In the case of `C/C(=N\Nc1ccc(S(N)(=O)=O)cc1)c1cnn(-c2cc(=O)[nH]c3ccc(Br)cc23)c1C` [Compound 4e, (E)-4-(2-(1-(1-(6-bromo-2-oxo-1,2-dihydroquinolin-4-yl)-5-methyl-1H-pyrazol-4-yl)ethylidene)hydrazineyl)benzenesulfonamide], the “Apoptosis Late” value (HOP-92 cells [1]; HOP92 cells, control 0.15) is reported as 11.28, the “Apoptosis Early” value (HOP-92 cells [1]; HOP92 cells, control 0.69) is reported as 22.91 and the Necrosis (HOP-92 cells [1]; HOP92 cells, control 1.3) is reported as 3.4. For the same molecule, the “Apoptosis Total” value (HOP-92 cells [1]; HOP92 cells, control 2.14) was 37.59, the “Apoptosis Early” value (HOP-92 cells [1]; HOP-92, 24 h at IC50) was 22.91% and the “Apoptosis Late” value (HOP-92 cells [1]; HOP-92, 24 h at IC50) was 11.28%. For the same molecule, the “Apoptosis Total” value (HOP-92 cells [1]; HOP-92, 24 h at IC50) was 37.59%, the Necrosis (HOP-92 cells [1]; HOP-92, 24 h at IC50) was 3.4% and the “DNA content Comment” value (HOP-92 cells [2]; HOP92 cells) was “cell growth arrest@ G1”. The “DNA content %G2/M” value (HOP-92 cells [2]; HOP92 cells, control 16.08) was 14.6%, the “DNA content %S” value (HOP-92 cells [2]; HOP92 cells, control 35.66) was 31.29% and the “DNA content %G0-G1” value (HOP-92 cells [2]; HOP92 cells, control 48.26) was 54.11%. For the same molecule, the “Comment (cell cycle arrest)” value (HOP-92 cells [2]; HOP-92, 24 h at IC50) was “cell growth is arrested at the G1 phase; also recorded: cell cycle arrest at the G0-1 phase; also recorded: Cell growth arrest at G1phase”, the “DNA content % G0–G1” value (HOP-92 cells [2]; HOP-92, 24 h at IC50) was 54.11% and the “DNA content %G2/M” value (HOP-92 cells [2]; HOP-92, 24 h at IC50) was 14.6%. The “DNA content %S” value (HOP-92 cells [2]; HOP-92, 24 h at IC50) was 31.3%.
